Results: patent publication US10035800B2 (AbbVie Inc., priority 2013, dated 2018)
pEC50, pKi: −log10 of the molar value.

Key:
[1] = system: breast cancer cell line MX-1; assay: MX-1 cell line proliferation assay; format: cell-based; conditions: MX-1 cells, 3-day proliferation assay, Cell Titer Glo; read-out: Cellular proliferation: EC50
In short: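 MX-1 cells at 5000/well, in RPMI 1640 with 10% FBS, were exposed to compounds for 3 days. Final concentrations ranged 3 μM–0.1 nM or 1 μM–0.03 nM, in 3-fold steps. Cell Titer Glo luminescence was normalized to DMSO and fitted sigmoidally for EC50; overall MSR 2.1.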

[2] = biological target: T1, BRD4 (BDI_K57-E168) (Homo sapiens, UniProt O60885); assay: TR-FRET bromodomain binding assay, first bromodomain of BRD4; conditions: TR-FRET assay protocol G (compound 0.92 μM-15 pM); 100 nM probe
T1 construct: BD1: amino acids K57-E168; made in house
In short: (§1)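 Probe displacement by TR-FRET: 8 nM His-BRD4 bromodomain, 1 nM Eu-anti-His, Alexa647 BET-inhibitor probe at 100 nM (BDI) or 30 nM (BDII); 20 mM Na phosphate pH 6.0, 2% DMSO; 1 h RT. Ex 340, Em 495/520. IC50 from 4PL fit; Ki from IC50, probe Kd and probe concentration.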

[3] = biological target: T2, BRD4 (BDII_E352-M457) (Homo sapiens, UniProt O60885); assay: TR-FRET bromodomain binding assay, second bromodomain of BRD4; conditions: TR-FRET assay protocol G (compound 0.92 μM-15 pM); 30 nM probe
T2 construct: protocol; made in house
In short: as §1

| Compound | pEC50 [1] | pKi [2] | pKi [3] |
| --- | --- | --- | --- |
| Cc1cnc2c(c1)-c1cn(C)c(=O)c3[nH]cc(c13)CN2c1ccc(F)cc1 [Example 11, 4-(4-fluorophenyl)-7,10-dimethyl-3,4-dihydro-1H-1,4,5,10-tetraazadibenzo[cd,f]azulen-11(10H)-one] | 8.79 | 8.79 | 8.59 |
| Cn1cc2c3c(c[nH]c3c1=O)CN(CC1CC1)c1ccccc1-2 [Example 13, 4-(cyclopropylmethyl)-10-methyl-3,4-dihydro-1H-1,4,10-triazadibenzo[cd,f]azulen-11(10H)-one] | 8.14 | 8.32 | 8.11 |
| Cn1cc2c3c(c(C(N)=O)[nH]c3c1=O)CN(c1ccc(F)cc1F)c1ccc(CS(C)(=O)=O)cc1-2 [Example 209, 4-(2,4-difluorophenyl)-10-methyl-7-((methylsulfonyl)methyl)-11-oxo-3,4,10,11-tetrahydro-1H-1,4,10-triazadibenzo[cd,f]azulene-2-carboxamide] | 8.18 | 8.92 | 9.07 |
| Cn1cc2c3c(c(C(=O)O)[nH]c3c1=O)CN(c1ccc(F)cc1F)c1ccc(CS(C)(=O)=O)cc1-2 [Example 263, 4-(2,4-difluorophenyl)-10-methyl-7-((methylsulfonyl)methyl)-11-oxo-3,4,10,11-tetrahydro-1H-1,4,10-triazadibenzo[cd,f]azulene-2-carboxylic acid] | < 6.00 | 8.15 | 8.09 |
| CNC(=O)CCC1c2c[nH]c3c(=O)n(C)cc(c23)-c2cc(CS(C)(=O)=O)ccc2N1c1ccc(F)cc1F (stereo not drawn) [Example 118, 3-(4-(2,4-difluorophenyl)-10-methyl-7-((methylsulfonyl)methyl)-11-oxo-3,4,10,11-tetrahydro-1H-1,4,10-triazadibenzo[cd,f]azulen-3-yl)-N-methylpropanamide] | 6.76 | 7.90 | 8.86 |
| CCCCN1Cc2c[nH]c3c(=O)n(C)cc(c23)-c2cc(F)cc(F)c21 [Example 47, 4-butyl-5,7-difluoro-10-methyl-3,4-dihydro-1H-1,4,10-triazadibenzo[cd,f]azulen-11(10H)-one] | 8.08 | 8.86 | 8.90 |
| CCNC(=O)c1[nH]c2c(=O)n(C)cc3c2c1C(C(=O)OCC)N(c1ccc(F)cc1F)c1ccc(CS(C)(=O)=O)cc1-3 (stereo not drawn) [Example 239, ethyl 4-(2,4-difluorophenyl)-2-(ethylcarbamoyl)-10-methyl-7-((methylsulfonyl)methyl)-11-oxo-3,4,10,11-tetrahydro-1H-1,4,10-triazadibenzo[cd,f]azulene-3-carboxylate] | 6.53 | 7.50 | 8.67 |
| Cn1cc2c3c(c[nH]c3c1=O)C(c1ccccc1-c1ccccc1)N(c1ccc(F)cc1F)c1ccc(CS(C)(=O)=O)cc1-2 (stereo not drawn) [Example 230] | 6.28 | < 6.62 | 7.24 |
| 4-(2-fluoropyridin-4-yl)-10-methyl-7-((methylsulfonyl)methyl)-3,4-dihydro-1H-1,4,10-triazadibenzo[cd,f]azulen-11(10H)-one [Example 254] | 8.41 | 8.95 | 9.15 |
| CCNC(=O)c1[nH]c2c(=O)n(C)cc3c2c1CN(c1ccc(C#N)cc1)c1ccc(CS(C)(=O)=O)cc1-3 [Example 203, 4-(4-cyanophenyl)-N-ethyl-10-methyl-7-((methylsulfonyl)methyl)-11-oxo-3,4,10,11-tetrahydro-1H-1,4,10-triazadibenzo[cd,f]azulene-2-carboxamide] | 8.27 | 9.00 | 9.15 |
| Cn1cc2c3c(c[nH]c3c1=O)C(c1cccc(C#N)c1)N(c1ccc(F)cc1F)c1ccc(CS(C)(=O)=O)cc1-2 (stereo not drawn) [Example 237, 3-(4-(2,4-difluorophenyl)-10-methyl-7-((methylsulfonyl)methyl)-11-oxo-3,4,10,11-tetrahydro-1H-1,4,10-triazadibenzo[cd,f]azulen-3-yl)benzonitrile] | 6.50 | 7.66 | 7.92 |
| CCC(=O)N1Cc2c[nH]c3c(=O)n(C)cc(c23)-c2cc(CS(C)(=O)=O)ccc21 [Example 105, 10-methyl-7-((methylsulfonyl)methyl)-4-propionyl-3,4-dihydro-1H-1,4,10-triazadibenzo[cd,f]azulen-11(10H)-one] | 7.79 | 8.26 | 8.57 |
| Cn1cc2c3c(c[nH]c3c1=O)CN(C(C#N)c1ccccc1)c1ccc(CS(C)(=O)=O)cc1-2 (stereo not drawn) [Example 261] | < 6.00 | 8.03 | 8.11 |
| 10-methyl-7-((methylsulfonyl)methyl)-4-(pyrimidin-4-yl)-3,4-dihydro-1H-1,4,10-triazadibenzo[cd,f]azulen-11(10H)-one [Example 259] | 7.72 | 8.47 | 8.52 |
| Cn1cc2c3c(c[nH]c3c1=O)CN(C(=O)C1CC1)c1ccc(CS(C)(=O)=O)cc1-2 [Example 115, 4-(cyclopropanecarbonyl)-10-methyl-7-((methylsulfonyl)methyl)-3,4-dihydro-1H-1,4,10-triazadibenzo[cd,f]azulen-11(10H)-one] | 8.11 | 8.06 | 8.57 |
| Cn1cc2c3c(c[nH]c3c1=O)CN(c1ccc(C(F)(F)F)cn1)c1ccc(CS(C)(=O)=O)cc1-2 [Example 253, 10-methyl-7-((methylsulfonyl)methyl)-4-(5-(trifluoromethyl)pyridin-2-yl)-3,4-dihydro-1H-1,4,10-triazadibenzo[cd,f]azulen-11(10H)-one] | 8.89 | 9.15 | 8.93 |
| CCCN1Cc2c[nH]c3c(=O)n(C)cc(c23)-c2cc(F)cc(F)c21 [Example 48, 5,7-difluoro-10-methyl-4-propyl-3,4-dihydro-1H-1,4,10-triazadibenzo[cd,f]azulen-11(10H)-one] | 8.36 | 8.95 | 9.07 |
| Cc1cnc2c(c1)-c1cn(C)c(=O)c3[nH]cc(c13)C(c1ccccc1)N2c1ccc(F)cc1 (stereo not drawn) [Example 33, 4-(4-fluorophenyl)-7,10-dimethyl-3-phenyl-3,4-dihydro-1H-1,4,5,10-tetraazadibenzo[cd,f]azulen-11(10H)-one] | 6.31 | 7.42 | 7.64 |
| Cn1cc2c3c(c[nH]c3c1=O)C(CCCOc1ccccc1)N(c1ccc(F)cc1F)c1ccc(CS(C)(=O)=O)cc1-2 (stereo not drawn) [Example 143, 4-(2,4-difluorophenyl)-10-methyl-7-((methylsulfonyl)methyl)-3-(3-phenoxypropyl)-3,4-dihydro-1H-1,4,10-triazadibenzo[cd,f]azulen-11(10H)-one] | 6.76 | 7.26 | 8.51 |
| Cn1cc2c3c(c[nH]c3c1=O)CN(C1CCC(NC(=O)OC(C)(C)C)CC1)c1ccc(S(C)(=O)=O)cc1-2 (stereo not drawn) [Example 170, tert-butyl ((trans)-4-(10-methyl-7-(methylsulfonyl)-11-oxo-10,11-dihydro-1H-1,4,10-triazadibenzo[cd,f]azulen-4(3H)-yl)cyclohexyl)carbamate] | 7.24 | 8.15 | 7.60 |
| Cn1cc2c3c(c[nH]c3c1=O)C(c1cccc(-c3ccccn3)c1)N(c1ccc(F)cc1F)c1ccc(CS(C)(=O)=O)cc1-2 (racemic) [Example 236, 4-(2,4-difluorophenyl)-10-methyl-7-((methylsulfonyl)methyl)-3-(3-(pyridin-2-yl)phenyl)-3,4-dihydro-1H-1,4,10-triazadibenzo[cd,f]azulen-11(10H)-one] | < 6.00 | 7.07 | 7.52 |
| Cn1cc2c3c(c[nH]c3c1=O)C(Cn1ccccc1=O)N(c1ccc(F)cc1F)c1ccc(CS(C)(=O)=O)cc1-2 (stereo not drawn) [Example 238, 4-(2,4-difluorophenyl)-10-methyl-7-((methylsulfonyl)methyl)-3-((2-oxopyridin-1(2H)-yl)methyl)-3,4-dihydro-1H-1,4,10-triazadibenzo[cd,f]azulen-11(10H)-one] | 6.56 | 7.21 | 8.34 |
| Cn1cc2c3c(c[nH]c3c1=O)CN(CC1CCNC1)c1ccc(CS(C)(=O)=O)cc1-2 (stereo not drawn) [Example 36] | < 6.00 | 8.30 | 8.20 |
| Cn1cc2c3c(c[nH]c3c1=O)C(CCC(=O)NC1CCS(=O)(=O)C1)N(c1ccc(F)cc1F)c1ccc(CS(C)(=O)=O)cc1-2 (stereo not drawn) [Example 124, 3-(4-(2,4-difluorophenyl)-10-methyl-7-((methylsulfonyl)methyl)-11-oxo-3,4,10,11-tetrahydro-1H-1,4,10-triazadibenzo[cd,f]azulen-3-yl)-N-(1,1-dioxidotetrahydrothiophen-3-yl)propanamide] | 6.03 | 8.05 | 8.56 |
| Cn1cc2c3c(c[nH]c3c1=O)CN(Cc1cccnn1)c1ccc(CS(C)(=O)=O)cc1-2 [Example 250, 10-methyl-7-((methylsulfonyl)methyl)-4-(pyridazin-3-ylmethyl)-3,4-dihydro-1H-1,4,10-triazadibenzo[cd,f]azulen-11(10H)-one] | 6.07 | 8.06 | 7.65 |
| Cn1cc2c3c(c[nH]c3c1=O)CN(c1ccc(F)cc1F)c1c(C(N)=O)cc(CS(C)(=O)=O)cc1-2 [Example 240, 4-(2,4-difluorophenyl)-10-methyl-7-((methylsulfonyl)methyl)-11-oxo-3,4,10,11-tetrahydro-1H-1,4,10-triazadibenzo[cd,f]azulene-5-carboxamide] | 7.07 | 8.50 | 8.71 |
